Where two headings read alike, the source gives them in different places.
Columns and labels:
Kv1.1 [1] = molecular target: T1, Kv1.1 (Homo sapiens, UniProt Q09470); conditions: cited from earlier work
Kv1.1 [2] = molecular target: T1, Kv1.1; conditions: Gutman et al, 2003; cited from earlier work
TNF-α mRNA = test: RT-PCR for TNF-α mRNA in normal human T-cells; assay type: cell-based; conditions: 100 nM DTX-K for 24 hr; normalized to S14; FIG. 3A
Protocol: RT-PCR for TNF-α and Kv1.1: Total RNA was prepared according to Tri-Reagent protocol (MRC, Cincinnati, Ohio). First-strand cDNA was synthesized by Reverse Transcription System (Promega, Madison, Wis.). RT-PCR was conducted in a 50 μl reaction mixture containing 50 ng cDNA, 5 μl of X10 Optibuffer (Bioline, London, UK), 3 μl of 50 mM MgCl2, 2.5 μl of 10 mM dNTP mix (Promega), 4U of Bio-X-act DNA Polymerase (Bioline). For TNF-α/S14 parallel amplification, 2 μl of each TNF-α primer (10 pmol/μl) and 0.25 μl of each S14 primer (10 pmol/μl) were used. For Kv1.1/S14 parallel amplification, 5 μl of each Kv1.1 primer (100 pmol/μl) and 2.5 μl of each S14 primer (10 pmol/μl) were used. […]; Conditions for TNF-α PCR were: 94° C. for 1 minute, 63° C. for 40 seconds and 72° C. for 40 seconds (29 cycles). Conditions for Kv1.1 PCR were: 94° C. for 3 minutes (one cycle); 94° C. for 1 minute, 60/57/54/51/48° C. for 2 minutes and 72° C. for 3 minutes (three cycles each); 94° C. for 1 minute, 50° C. for 2 minutes and 72° C. for 3 minutes (25 cycles). […]
The question of whether selective block of Kv1.1 subunit containing channels in T-cells elevates not only the levels of the TNF-α protein, but also TNF-α mRNA was studied next. […] Bars at the bottom represent fold increase TNF-α mRNA calculated following densitometric analysis and normalization of the corresponding RT-PCR bands of TNF-α/S14. […]

human T-cells = conditions: data not shown
normal human T-cells = assay type: cell-based
Protocol: Human T-Cells: Normal human T-cells were purified from peripheral blood of healthy donors as described (Levite et al, 2000; Ganor et al, 2003; Levite t al, 1998), and the resulting cell population, containing ≧90% T-cells, was suspended in RPMI medium supplemented with 10% FCS, 1% L-Glutamine and antibiotics (Biological Industries, Bet Haemek, Israel) and maintained at 2×10^6 cells/ml (37° C./5% CO2).
Determination of TNF-α, IFN-γ, IL-10 and IL-4 by ELISA: Freshly-purified normal resting human T-cells (2×10^6/ml) were incubated in 24-well plates (Costar, Corning, N.Y.) and the various channel blockers were added. […] Cytokine levels were measured in supernatants after 24 hours for TNF-α and IFN-γ and after 72 hours for IL-10 and IL-4, by quantitative sandwich ELISA (R&D, Minneapolis, Minn.), according to the manufacturer's instructions. […]
These 12 blockers were selected on the basis of their reported ability to block most types of K^+, Na^+, Ca^2+ and Cl^− channels expressed in T-cells (Deutsch et al, 1986; Lewis et al, 1995; Lewis et al, 1988; Rader et al, 1996; Freedman et al, 1995; Koo et al, 1997; Lin et al, 1993; Ishida et al, 1993; Jensen et al, 1999; Kotturi et al, 2003; Phipps et al, 1996; Verheugen et al, 1997; Levite et al, 2000; Chandy et al, 1984). The levels of TNFα secreted into the culture media were tested 24 hours later by ELISA. For positive control, the cells were exposed to the potent phorbol ester PMA, know to activate T-cells in a non-specific manner. The results are shown in FIG. 1A and represent fold increase ±SD TNF-α secretion tested in 2-3 independent experiments. Each ion channel blocker was examined in at least two independent experiments, and at several concentrations covering its effective range (see Materials and Methods). The numbers in each figure next to each blocker represent the highest molar concentration used. Statistical analysis: *P=0.0001, 0.0005, 0.0011 and 0.0005 vs. untreated for MgTX, KTX, DTX-K and PMA, respectively (Student's t-test).

T1 sequence (Q09470 whole entry): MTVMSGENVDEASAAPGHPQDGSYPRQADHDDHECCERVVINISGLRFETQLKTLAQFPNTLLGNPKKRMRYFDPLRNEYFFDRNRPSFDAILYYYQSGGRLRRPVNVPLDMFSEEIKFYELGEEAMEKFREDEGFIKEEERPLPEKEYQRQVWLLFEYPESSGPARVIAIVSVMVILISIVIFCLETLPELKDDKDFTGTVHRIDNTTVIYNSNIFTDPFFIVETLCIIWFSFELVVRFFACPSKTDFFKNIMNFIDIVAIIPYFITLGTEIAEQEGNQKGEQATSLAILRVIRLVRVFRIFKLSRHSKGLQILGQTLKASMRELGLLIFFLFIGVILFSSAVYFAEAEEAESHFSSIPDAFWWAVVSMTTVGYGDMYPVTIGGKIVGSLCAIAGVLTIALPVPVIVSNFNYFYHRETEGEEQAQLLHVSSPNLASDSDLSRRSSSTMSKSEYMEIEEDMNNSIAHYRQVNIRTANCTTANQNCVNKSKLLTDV

Dendrotoxin-K (AAKYCKLPLRIGPCKRKIPSFYYKWKAKQCLPFDYSGCGGNANRFKTIEECRRTCVG) [DTX-K]
active concentration, Kv1.1 channel block (Kv1.1 [1]): picomolar concentrations | Ki (Kv1.1 [2]): 0.016 nM | TNFα mRNA levels (TNF-α mRNA): augmented | effect on cell survival or proliferation (human T-cells): no significant effect | IFN-γ secretion (normal human T-cells; 100 nM DTX-K, 24 hours, FIG. 2B): not affecting | TNFα secretion (normal human T-cells; 100 nM DTX-K, 24 hr, FIG. 2A): elevated | IL-10 secretion (normal human T-cells; 100 nM DTX-K, 72 hours, FIG. 2C): not affecting | IL-4 secretion (normal human T-cells; 100 nM DTX-K, 72 hours, FIG. 2D): not affecting | TNFα secretion, time course (normal human T-cells; 100 nM DTX-K, after 16 hours, individuals 4 and 5): significantly elevated | TNF-α secretion, time course (normal human T-cells; 100 nM DTX-K, after 72 hours, individuals 4 and 5): remained significantly high | additional elevation in TNFα levels beyond TCR-activation alone (normal human T-cells; DTX-K either during or after TCR-activation, data not shown): did not cause additional elevation | fold increase in TNFα secretion (normal human T-cells; FIG. 1A, 24 hours, DTX-K 100 nM, other blockers at highest concentration used, no other stimulus): 33.4 fold increase | fold increase in TNFα secretion (normal human T-cells; FIG. 1B, 24 hour exposure, 100 nM DTX-K): 8.7 fold | fold increase in TNFα secretion (normal human T-cells; FIG. 1B, 24 hour exposure, 1 μM DTX-K): 39.5 fold | fold increase TNF-α secretion (normal human T-cells; individual 1 (FIG. 1C), 24 hours, 100 nM): 22.3 fold | fold increase TNF-α secretion (normal human T-cells; individual 2 (FIG. 1D), 24 hours, 100 nM): 8.7 fold | fold increase TNF-α secretion (normal human T-cells; individual 3 (FIG. 1E), 24 hours, 100 nM): 49.0 fold | fold increase TNF-α secretion (normal human T-cells; individual 4 (FIG. 1F), 24 hours, 100 nM): 34.4 fold | TNF-α secreted to the culture media (normal human T-cells; individual 4 (FIG. 1F), 24 hours, 100 nM, untreated 38 pg/ml): 1308 pg/mL | fold increase TNF-α secretion (normal human T-cells; individual 5 (FIG. 1G), 24 hours, 100 nM): 2.4 fold | fold increase TNF-α secretion (normal human T-cells; individual 6 (FIG. 1H), 24 hours, 100 nM): 2.0 fold

Source: patent publication US20090022739A1, “MODULATING THE KV1.1 VOLTAGE-GATED POTASSIUM CHANNEL IN T-CELLS FOR REGULATING THE […] AND SECRETION OF TUMOR NECROSIS FACTOR ALPHA (tnf-ALPHA) AND TREATING HUMAN DISEASE OR INJURIES MEDIATED BY […] HIGH OR LOW LEVELS OF TNF-ALPHA” (priority 2005, published 2009)
